The compounds below were run against T1, CFTR (F508del/MF-HBE cells) (Homo sapiens, UniProt P13569, DEL508-508) (assay: Ussing chamber assay of CFTR-mediated short-circuit currents (identification of potentiator compounds)). Settings: CFTR-mediated ISC in F508del/MF-HBE cells; incubated 18-24 hours at 37° C. with 10 μM (14S)-8-[3-(2-{dispiro[2.0.2.1]heptan-7-yl}ethoxy)-1H-pyrazol-1-yl]-...-2,2,4-trione, 20% human serum.
T1 construct: human bronchial epithelial (HBE) cells derived from CF subjects heterozygous for F508del and a minimal function CFTR mutation; endogenous in cells; host or cells: primary human bronchial epithelial cells from CF subjects (F508del/MF genotype)
Type: cell-based
Outline: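 Short-circuit current was voltage-clamped at 0 mV and 37 °C in pH 7.4 HEPES buffers, with amiloride (30 μM) on the apical side. The CFTR component was defined as forskolin (20 μM) peak minus residual current after BPO/GlyH-101/CFTRinh-172 at 20 μM each. Cells had been pretreated 18–24 h with potentiator concentrations and 10 μM corrector in 20% human serum, kept throughout the measurement.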

T1 sequence (P13569 with tags, fused parts or gaps DEL508-508): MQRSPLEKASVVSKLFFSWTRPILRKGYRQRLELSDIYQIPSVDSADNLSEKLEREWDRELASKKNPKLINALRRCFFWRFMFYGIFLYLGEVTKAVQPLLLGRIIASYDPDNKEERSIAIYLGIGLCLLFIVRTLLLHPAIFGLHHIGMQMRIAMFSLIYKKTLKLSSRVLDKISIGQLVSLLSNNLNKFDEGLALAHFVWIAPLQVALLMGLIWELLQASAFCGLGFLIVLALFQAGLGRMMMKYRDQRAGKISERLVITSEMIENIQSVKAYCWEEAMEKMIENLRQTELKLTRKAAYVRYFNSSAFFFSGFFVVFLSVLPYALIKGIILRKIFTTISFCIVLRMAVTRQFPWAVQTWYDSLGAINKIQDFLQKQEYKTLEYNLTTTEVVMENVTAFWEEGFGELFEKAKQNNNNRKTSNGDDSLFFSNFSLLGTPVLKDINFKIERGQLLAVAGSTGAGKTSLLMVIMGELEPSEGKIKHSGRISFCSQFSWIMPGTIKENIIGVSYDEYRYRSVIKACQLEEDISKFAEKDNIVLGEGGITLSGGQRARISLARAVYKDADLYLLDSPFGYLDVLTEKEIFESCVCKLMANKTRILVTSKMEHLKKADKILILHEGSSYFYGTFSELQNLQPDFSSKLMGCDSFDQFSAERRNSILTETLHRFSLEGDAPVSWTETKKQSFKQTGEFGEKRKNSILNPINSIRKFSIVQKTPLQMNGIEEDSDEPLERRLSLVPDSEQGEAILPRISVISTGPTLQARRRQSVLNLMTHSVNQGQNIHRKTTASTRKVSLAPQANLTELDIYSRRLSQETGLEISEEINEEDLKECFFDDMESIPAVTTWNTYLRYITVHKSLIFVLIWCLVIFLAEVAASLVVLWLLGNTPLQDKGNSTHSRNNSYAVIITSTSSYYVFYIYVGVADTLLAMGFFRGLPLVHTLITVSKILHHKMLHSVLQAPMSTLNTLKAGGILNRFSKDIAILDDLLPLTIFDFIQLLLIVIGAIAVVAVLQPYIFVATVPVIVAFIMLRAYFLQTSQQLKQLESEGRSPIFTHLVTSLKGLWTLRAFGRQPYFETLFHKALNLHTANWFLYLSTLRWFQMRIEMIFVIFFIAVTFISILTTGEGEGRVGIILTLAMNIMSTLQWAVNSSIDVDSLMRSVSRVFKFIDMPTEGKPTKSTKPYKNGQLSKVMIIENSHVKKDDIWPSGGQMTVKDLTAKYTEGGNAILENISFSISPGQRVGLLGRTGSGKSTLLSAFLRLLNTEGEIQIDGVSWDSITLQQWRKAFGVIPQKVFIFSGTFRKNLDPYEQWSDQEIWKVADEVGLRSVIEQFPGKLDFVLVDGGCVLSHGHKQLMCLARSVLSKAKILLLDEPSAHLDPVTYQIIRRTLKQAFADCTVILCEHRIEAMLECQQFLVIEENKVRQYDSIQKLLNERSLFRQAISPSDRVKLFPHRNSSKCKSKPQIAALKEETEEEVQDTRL

EC50	Compound
< 500 nM	Nc1cc(C(F)(F)F)c2nc1-c1nnc(o1)[C@@](O)(C(F)(F)F)CCCCCC(C1CC1)N2 (single isomer, unassigned) [Compound 192]
< 500 nM	CC1(C)CCCCC(O)C(O)(C(F)(F)F)C2=NN=C(O2)c2nc(c(C(F)(F)F)cc2N)N1 (single isomer, unassigned) [Compound 194, 17-amino-12,12-dimethyl-6,15-bis(trifluoromethyl)-19-oxa-3,4,13,18-tetrazatricyclo[12.3.1.12,5]nonadeca-1(18),2,4,14,16-pentaene-6,7-diol]
> 1000 nM	CC1(C)CCCCC(O)C(O)(C(F)(F)F)C2=NN=C(O2)c2nc(c(C(F)(F)F)cc2N)N1 (single isomer, unassigned) [Compound 195, 17-amino-12,12-dimethyl-6,15-bis(trifluoromethyl)-19-oxa-3,4,13,18-tetrazatricyclo[12.3.1.12,5]nonadeca-1(18),2,4,14,16-pentaene-6,7-diol]
< 500 nM	CC1(C)CCCOCC(O)(C(F)(F)F)C2=NN=C(O2)c2nc(c(C(F)(F)F)cc2N)N1 (single isomer, unassigned) [Compound 197, 17-amino-12,12-dimethyl-6,15-bis(trifluoromethyl)-8,19-dioxa-3,4,13,18-tetrazatricyclo[12.3.1.12,5]nonadeca-1(18),2,4,14,16-pentaen-6-ol]
< 500 nM	CC1(C)COCCCC(O)(C(F)(F)F)C2=NN=C(O2)c2nc(c(C(F)(F)F)cc2N)N1 (single isomer, unassigned) [Compound 199, 17-amino-12,12-dimethyl-6,15-bis(trifluoromethyl)-10,19-dioxa-3,4,13,18-tetrazatricyclo[12.3.1.12,5]nonadeca-1(18),2,4,14,16-pentaen-6-ol]
< 500 nM	Nc1cc(C(F)(F)F)c2nc1-c1nnc(o1)[C@@](O)(C(F)(F)F)CCCCCC(c1ncccn1)N2 (single isomer, unassigned) [Compound 201]
< 500 nM	CC1(C)Nc2nc(c(N)cc2C(F)(F)F)C2=NN=C(O2)[C@@](O)(C(F)(F)F)CCCCC1O (single isomer, unassigned) [Compound 203]
< 500 nM	CC1(C)Nc2nc(c(N)cc2C(F)(F)F)C2=NN=C(O2)[C@@](O)(C(F)(F)F)CCCCC1O (single isomer, unassigned) [Compound 204]
< 500 nM	Nc1cc(C(F)(F)F)c2nc1-c1nnc(o1)[C@@](O)(C(F)(F)F)CCCCCC1(CCOC1)N2 (single isomer, unassigned) [Compound 207]
< 500 nM	Nc1cc(C(F)(F)F)c2nc1-c1nnc(o1)[C@@](O)(C(F)(F)F)CCCCCC1(CCOC1)N2 (single isomer, unassigned) [Compound 208]
< 500 nM	Nc1cc(C(F)(F)F)c2nc1-c1nnc(o1)[C@@](O)(C(F)(F)F)CCCCC[C@@H]1CCCN21 [Compound 4, (6R,12R)-20-amino-6,18-bis(trifluoromethyl)-22-oxa-3,4,16,21-tetraazatetracyclo[15.3.1.12,5.012,16]docosa-1(21),2,4,17,19-pentaen-6-ol]
> 1000 nM	Nc1cc(C(F)(F)F)c2nc1-c1nnc(o1)[C@](O)(C(F)(F)F)CCCCC[C@@H]1CCCN21 [Compound 5, (6S,12R)-20-amino-6,18-bis(trifluoromethyl)-22-oxa-3,4,16,21-tetraazatetracyclo[15.3.1.12,5.012,16]docosa-1(21),2,4,17,19-pentaen-6-ol]
< 500 nM	Nc1cc(C(F)(F)F)c2nc1-c1nnc(o1)C(O)(C(F)(F)F)CCCCC1CCN2C1 (centres unmarked) [Compound 8, 16-amino-10,18-bis(trifluoromethyl)-20-oxa-2,12,13,19-tetraazatetracyclo[13.3.1.12,5.111,14]henicosa-1(19),11,13,15,17-pentaen-10-ol]
< 500 nM	Nc1cc(C(F)(F)F)c2nc1-c1nnc(o1)C(O)(C(F)(F)F)CCCCC1CCN2C1 (centres unmarked) [Compound 9, 16-amino-10,18-bis(trifluoromethyl)-20-oxa-2,12,13,19-tetraazatetracyclo[13.3.1.12,5.111,14]henicosa-1(19),11,13,15,17-pentaen-10-ol]
